Assay results published in US8846918B2, “Compounds useful as inhibitors of ATR kinase” (Vertex Pharmaceuticals Incorporated, priority 2011, dated 2014).

Target: T1, ATR kinase (Homo sapiens, UniProt Q13535)
T1 construct: Assays were carried out at 25° C. in the presence of 5 nM full-length ATR
Assay: ATR Inhibition Assay (radioactive-phosphate incorporation)
Type: biochemical
Details: Ki(app); 5 nM full-length ATR, 10 μM ATP, 800 μM target peptide, 25° C.
Experimental: Compounds were screened for their ability to inhibit ATR kinase using a radioactive-phosphate incorporation assay. Assays were carried out in a mixture of 50 mM Tris/HCl (pH 7.5), 10 mM MgCl2 and 1 mM DTT. Final substrate concentrations were 10 μM [γ-33P]ATP (3 mCi 33P ATP/mmol ATP, Perkin Elmer) and 800 μM target peptide (ASELPASQPQPFSAKKK).
Assays were carried out at 25° C. in the presence of 5 nM full-length ATR. An assay stock buffer solution was prepared containing all of the reagents listed above, with the exception of ATP and the test compound of interest. 13.5 μL of the stock solution was placed in a 96 well plate followed by addition of 2 μL of DMSO stock containing serial dilutions of the test compound (typically starting from a final concentration of 15 μM with 3-fold serial dilutions) in duplicate (final DMSO concentration 7%). The plate was pre-incubated for 10 minutes at 25° C. and the reaction initiated by addition of 15 μL [γ-33P]ATP (final concentration 10 μM).
The reaction was stopped after […] by the addition of 300 μL 0.1M phosphoric acid containing 2 mM ATP. […]
After removing mean background values for all of the data points, Ki(app) data were calculated from non-linear regression analysis of the initial rate data using the Prism software package (GraphPad Prism version 3.0cx for Macintosh, GraphPad Software, San Diego Calif., USA).

T1 sequence (Q13535 whole entry): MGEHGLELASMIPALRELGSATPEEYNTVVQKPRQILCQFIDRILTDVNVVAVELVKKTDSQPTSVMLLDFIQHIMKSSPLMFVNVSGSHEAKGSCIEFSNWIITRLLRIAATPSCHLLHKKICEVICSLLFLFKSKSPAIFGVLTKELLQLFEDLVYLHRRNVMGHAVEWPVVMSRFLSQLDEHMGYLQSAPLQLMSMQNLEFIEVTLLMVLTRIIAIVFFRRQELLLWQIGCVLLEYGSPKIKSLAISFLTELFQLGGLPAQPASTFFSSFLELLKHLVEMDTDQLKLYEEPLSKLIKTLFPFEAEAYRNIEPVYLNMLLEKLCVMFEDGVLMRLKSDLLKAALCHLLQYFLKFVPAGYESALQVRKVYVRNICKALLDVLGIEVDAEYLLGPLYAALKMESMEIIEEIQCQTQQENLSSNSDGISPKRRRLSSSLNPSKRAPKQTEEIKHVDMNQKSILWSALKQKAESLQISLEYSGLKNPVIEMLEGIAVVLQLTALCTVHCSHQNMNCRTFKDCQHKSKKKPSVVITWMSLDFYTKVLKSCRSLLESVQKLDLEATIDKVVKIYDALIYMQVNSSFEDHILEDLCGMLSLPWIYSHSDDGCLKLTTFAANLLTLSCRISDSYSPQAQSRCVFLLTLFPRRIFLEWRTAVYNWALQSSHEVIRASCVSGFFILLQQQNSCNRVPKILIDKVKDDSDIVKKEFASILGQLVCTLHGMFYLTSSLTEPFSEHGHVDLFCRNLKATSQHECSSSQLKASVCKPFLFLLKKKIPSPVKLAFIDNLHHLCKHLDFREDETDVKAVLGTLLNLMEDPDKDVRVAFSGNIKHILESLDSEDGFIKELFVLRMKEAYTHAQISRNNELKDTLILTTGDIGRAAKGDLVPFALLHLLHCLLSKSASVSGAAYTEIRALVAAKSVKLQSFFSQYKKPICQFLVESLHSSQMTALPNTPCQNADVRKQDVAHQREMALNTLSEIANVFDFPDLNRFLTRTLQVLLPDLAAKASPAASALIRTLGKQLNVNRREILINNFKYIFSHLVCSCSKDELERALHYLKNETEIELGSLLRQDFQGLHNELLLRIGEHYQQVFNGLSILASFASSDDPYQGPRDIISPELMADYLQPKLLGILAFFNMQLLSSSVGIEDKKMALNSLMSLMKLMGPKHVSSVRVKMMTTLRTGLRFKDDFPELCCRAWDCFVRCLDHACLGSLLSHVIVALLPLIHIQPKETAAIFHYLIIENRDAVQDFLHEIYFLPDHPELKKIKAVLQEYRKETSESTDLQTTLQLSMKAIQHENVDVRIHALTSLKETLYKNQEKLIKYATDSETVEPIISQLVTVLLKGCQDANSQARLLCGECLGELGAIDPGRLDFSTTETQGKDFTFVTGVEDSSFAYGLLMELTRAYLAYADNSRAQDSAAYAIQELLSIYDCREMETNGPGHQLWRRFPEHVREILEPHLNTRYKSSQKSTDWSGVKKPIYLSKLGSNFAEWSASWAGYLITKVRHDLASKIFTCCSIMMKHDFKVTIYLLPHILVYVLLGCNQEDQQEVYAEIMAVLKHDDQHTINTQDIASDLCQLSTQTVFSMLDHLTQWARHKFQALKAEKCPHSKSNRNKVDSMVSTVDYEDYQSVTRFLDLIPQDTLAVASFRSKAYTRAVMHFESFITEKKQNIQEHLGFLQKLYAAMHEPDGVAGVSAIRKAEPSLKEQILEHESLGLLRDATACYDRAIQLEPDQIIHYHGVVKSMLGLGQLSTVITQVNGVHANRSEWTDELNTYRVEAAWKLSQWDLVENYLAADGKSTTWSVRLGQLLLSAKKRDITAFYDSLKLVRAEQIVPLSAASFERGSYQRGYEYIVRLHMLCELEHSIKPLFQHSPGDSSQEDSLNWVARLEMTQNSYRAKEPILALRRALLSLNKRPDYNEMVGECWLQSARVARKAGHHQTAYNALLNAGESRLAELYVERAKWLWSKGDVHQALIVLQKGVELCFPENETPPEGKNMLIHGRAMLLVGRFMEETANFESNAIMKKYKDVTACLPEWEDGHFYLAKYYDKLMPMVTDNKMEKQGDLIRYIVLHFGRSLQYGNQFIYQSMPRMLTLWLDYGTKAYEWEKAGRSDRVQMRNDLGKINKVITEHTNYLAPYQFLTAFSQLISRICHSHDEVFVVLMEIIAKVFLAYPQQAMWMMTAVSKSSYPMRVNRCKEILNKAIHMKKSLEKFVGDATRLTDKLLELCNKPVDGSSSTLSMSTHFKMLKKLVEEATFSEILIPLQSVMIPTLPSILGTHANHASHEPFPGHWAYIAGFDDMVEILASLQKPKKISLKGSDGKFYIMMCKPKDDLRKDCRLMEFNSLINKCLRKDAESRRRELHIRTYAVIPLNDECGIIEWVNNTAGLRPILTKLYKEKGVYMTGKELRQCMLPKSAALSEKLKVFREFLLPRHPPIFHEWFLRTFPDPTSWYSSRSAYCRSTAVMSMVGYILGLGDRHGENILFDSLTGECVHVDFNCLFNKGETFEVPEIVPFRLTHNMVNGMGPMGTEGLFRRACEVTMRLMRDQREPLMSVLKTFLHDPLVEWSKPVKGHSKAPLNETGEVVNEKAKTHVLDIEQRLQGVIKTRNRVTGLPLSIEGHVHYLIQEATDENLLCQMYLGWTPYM

| Ki [µM] | Compound |
| --- | --- |
| 0.016 | CC(C)S(=O)(=O)c1ccc(-c2cnc(N)c(-c3onc(-c4ccc(CNC5CCOCC5)cc4)c3I)n2)cc1 [Compound I-1, 3-(4-iodo-3-(4-(((tetrahydro-2H-pyran-4-yl)amino)methyl)phenyl)isoxazol-5-yl)-5-(4-(isopropylsulfonyl)phenyl)pyrazin-2-amine] |
| 0.09 | 2-(4-(5-amino-6-(4-iodo-3-(4-(((tetrahydro-2H-pyran-4-yl)amino)methyl)phenyl)isoxazol-5-yl)pyrazin-2-yl)pyridin-2-yl)-2-methylpropanenitrile [Compound I-2] |
